Laboratory results as given in patent US20180021277A1, “ANTI-VIRULENCE COMPOSITIONS AND METHODS” (priority 2012, published 2018).
Changes are numbered by the printed parent chain. Entries after “also recorded” stand apart in the source; their conditions may differ.

What was measured:
[1] = tested on: Strepococcus pyogenes AC7; experiment: Host cell damage assay (LDH leakage), Streptococcus pyogenes; assay type: cell-based; settings: THP-1 human monocytes
Method: (§1) Damage to host cells was measured by leakage of lactate dehydrogenase (LDH) with the CytoTox 96 Non-Radioactive Cytotoxicity LDH Assay Promega Kits G178 and G1782 according to manufacturer's instructions.
(§2) […] The bacteria were cultured at 37° C., in a shaking incubator for 6 h at which time 20 μL of bacterial culture was added to 5×10^4 THP-1 monocytes or J774.2 macrophages in 100 μL of cell media (DMEM for J774.2 cells and RPMI for THP-1 cells) in 96 well plates. Bacteria and macrophage/monocytes were incubated together for 40 min at 37° C. Plates were then spun at 250 g for 4 min and 50 μL of the supernatant was removed to a new 96 well plate. 50 μL of substrate mix+assay buffer were added and incubated at room temperature for 10-30 min depending upon the rate of product formation and stopped by addition of 50 μL stop solution. The colorometric products were read at 490 nm on a Victor 3 plate reader. The data presented are from experiments performed in triplicate.
(§3) Gram-positive pathogens compromise host cell defense factors by puncturing membranes of immune system cells. To examine F19 efficacy in preventing host cell damage by various pathogens cell lysis assays were carried out by measuring leakage of lactate dehydrogenase (LDH) from cells. F19 indeed inhibits pathogen-mediated lysis of human THP-1 monocytes and mouse macrophage cell line J7774.2 by a series of Gram-positive pathogens, including MRSA, MRSE, Streptococcus pyogenes, Streptococcus pneumoniae and Bacillus cereus in a dose dependent manner (Table 2 for MRSA, Table 4 for other pathogens).

[2] = target: T1, AgrA_C I238A, V235A, V232A and double mutants (Staphylococcus aureus, UniProt P0A0I7, I238A/V235A); experiment: Microscale thermophoresis binding to AgrA_C alanine mutants
T1 construct: made in house
T1 sequence (P0A0I7 143-238 V235A/I238A): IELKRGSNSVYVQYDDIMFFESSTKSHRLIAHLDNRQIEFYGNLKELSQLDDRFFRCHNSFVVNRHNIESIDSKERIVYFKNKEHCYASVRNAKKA

[3] = target: T2, AgrA_C I238A, V235A, V232A and double mutants (Staphylococcus aureus, UniProt P0A0I7, I238A); experiment: as above; settings: data not shown
T2 construct: made in house
T2 sequence (P0A0I7 143-238 I238A): T1 sequence (P0A0I7 143-238 V235A/I238A) with A93V

[4] = target: T3, AgrA_C I238A, V235A, V232A and double mutants (Staphylococcus aureus, UniProt P0A0I7, V232A); experiment: as above
T3 construct: made in house
T3 sequence (P0A0I7 143-238 V232A): T1 sequence (P0A0I7 143-238 V235A/I238A) with V90A, A93V, A96I

[5] = target: T4, AgrA_C I238A, V235A, V232A and double mutants (Staphylococcus aureus, UniProt P0A0I7, V235A); experiment: as above; settings: data not shown
T4 construct: made in house
T4 sequence (P0A0I7 143-238 V235A): T1 sequence (P0A0I7 143-238 V235A/I238A) with A96I

[6] = tested on: MRSA USA300; experiment: Host cell damage assay (LDH leakage), MRSA; assay type: cell-based, Staphylococcus aureus; settings: for % Damage (LDH Leakage): THP-1 human monocytes; for Damage (%): Table 2, control = 100
Method: as §1, §2, §3

[7] = tested on: MRSA USA300; experiment: Emergence of resistance in vitro: daily passaging with hemolysis read-out; assay type: cell-based, Staphylococcus aureus; settings: 50 μg/mL, 16 daily passages; listed as F19
[8] = tested on: MRSA strain lacking the agr operon (Lac Δagr); experiment: Biofilm formation in MRSA strain lacking the agr operon; assay type: cell-based, Staphylococcus aureus; settings: data not shown
[9] = target: T5, AgrA_C from S. epidermidis / P3 DNA (Staphylococcus epidermidis, UniProt Q5HMY2); experiment: Electrophoretic mobility shift assay of AgrA_C from S. epidermidis with P3 DNA; assay type: binding; settings: 1 nM P3 DNA, 1 μM AgrA_C, increasing F19, 1% DMSO
T5 sequence (Q5HMY2 143-238): T1 sequence (P0A0I7 143-238 V235A/I238A) with S48A, D52E, V63I, K83G, H85N, Y87F, A93V, A96I
Method: FIG. 8 illustrates Electrophoretic mobility shift assay of AgrA_C from S. epidermidis as a function of F19 concentration. […] P3 DNA was radiolabeled with 32P. The concentrations of P3 DNA and AgrA_C were 1 nM and 1 μM, respectively. F19 was titrated in at increasing concentrations while maintaining a constant concentration of 1% DMSO.

CCCCCCc1cc(C(=O)COc2ccc(C(C)C)cc2)c(O)cc1O [4f-19]
% Damage (LDH Leakage) ([1]; F19 5 μg/mL): 97.4 ± 0.7%
% Damage (LDH Leakage) ([1]; F19 10 μg/mL): 88.4 ± 1.9%
% Damage (LDH Leakage) ([1]; F19 20 μg/mL): 73.6 ± 0.5%
% Damage (LDH Leakage) ([1]; F19 30 μg/mL): 56.2 ± 3.4%
% Damage (LDH Leakage) ([1]; F19 40 μg/mL): 38.7 ± 1.8%
binding to the I238A/V235A double mutant [2]: very weak binding at the background level of the instrument
reduction of affinity by I238A mutant [3]: 14 fold
affinity to V232A mutant [4]: no loss of affinity
reduction of affinity by V235A mutant [5]: 5 fold
% Damage (LDH Leakage) ([6]; F19 1 μg/mL): 62.0 ± 0.6%
% Damage (LDH Leakage) ([6]; F19 10 μg/mL): 44.2 ± 2.0%
% Damage (LDH Leakage) ([6]; F19 50 μg/mL): 29.1 ± 1.6%
Damage (%) ([6]; F19 1 μg/ml): 62.0 ± 0.6%
Damage (%) ([6]; F19 10 μg/ml): 44.2 ± 2.0%
Damage (%) ([6]; F19 50 μg/ml): 29.1 ± 1.6%
emergence of resistance/tolerance: hemolysis of rabbit blood over daily passages [7]: no increase in hemolysis; also recorded: No emergence of resistance
biofilm formation in Lac Δagr [8]: biofilm inhibition was also observed
formation of the protein-nucleic acid complex (EMSA) [9]: prevent the formation of the protein—nucleic acid complex
